The values below come from ChEMBL document CHEMBL1201862, “PubChem BioAssay data set” (2004).

Among the test systems are Hs-578T; HL-60; HOP-62; CAKI-1; A498; PC-3; NCI/ADR-RES; SN12C; KM12; EKVX; SF-295; U-251; OVCAR-8; MCF7; BT-549; A549; MDA-MB-435; LXFL 529; OVCAR-4; UO-31.
Common to all, as to assay: NCI tumour cell line growth inhibition, 48 h

Each structure is given as a SMILES string.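 How tested: cells in 96-well plates exposed to compound for 48 hours at five concentrations. GI50: concentration for 50% inhibition of growth.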 Active and inactive are the calls of the source. Cut-off read from the data, not from the text of the source: active = GI50 up to about 1.1 µM and inactive = higher.

For `CCN(CC)CCCNc1ccc2nc(C)n3c4ccc(O)cc4c(=O)c1c23`, the GI50 was 7.08 µM (inactive) in the test on Hs-578T; 1.61 µM (inactive) in the test on HL-60; 3.21 µM (inactive) in the test on HOP-62; 4.78 µM (inactive) in the test with CAKI-1; 11.9 µM (inactive) in the test with A498; 1.47 µM (inactive) in the test with PC-3. The GI50 in the test on NCI/ADR-RES was 12.6 µM (inactive); with SN12C it was 5.15 µM (inactive); in the test on KM12 it was 3.61 µM (inactive); in the test on EKVX, 11.4 µM (inactive); in the test with SF-295, 5.16 µM (inactive); in the test on U-251, 5.36 µM (inactive). The GI50 with OVCAR-8 was 1.95 µM (inactive); with MCF7, 0.863 µM (active); with BT-549, 12.1 µM (inactive); with A549 it was 2.11 µM (inactive); in the test with MDA-MB-435, 9.89 µM (inactive); in the test with LXFL 529, 3.22 µM (inactive). Besides, the GI50 in the test with OVCAR-4 is 4.65 µM (inactive); in the test with UO-31, 5.89 µM (inactive).

Regarding `COc1cc(-c2oc3c(OC)c(OC)cc(O)c3c(=O)c2OC)ccc1O` [TERNATIN], the GI50 with Hs-578T was 3.93 µM (inactive); in the test with HL-60 it was 1.24 µM (inactive); in the test with CAKI-1 it was 7 µM (inactive); in the test with PC-3, 20.4 µM (inactive); in the test with NCI/ADR-RES, 38.8 µM (inactive); in the test on EKVX it was 11.4 µM (inactive). Also, the GI50 is 20.7 µM (inactive) in the test on OVCAR-8; 21.1 µM (inactive) with MCF7; 5.01 µM (inactive) in the test with BT-549; 14.9 µM (inactive) in the test on A549; 10.6 µM (inactive) in the test on MDA-MB-435; 3.98 µM (inactive) in the test with LXFL 529.
